Experimental data as given in ChEMBL document CHEMBL2413072, “Synthesis and in vitro anticancer studies of novel C-2 arylidene congeners of lantadenes” (2013).

How the values were obtained:
Assay type in all cases: functional
COLO 205 = test: Growth inhibition of human COLO205 cells assessed as growth inhibition at 10 uM by sulforhodamine B assay; details: read-out: GI
786-0 [1] = test: Growth inhibition of human 786-0 cells assessed as growth inhibition at 10 uM by sulforhodamine B assay; details: read-out: GI
SNB-75 = test: Growth inhibition of human SNB75 cells assessed as cell growth at 10 uM by sulforhodamine B assay; details: read-out: Activity
NCI-H460 = test: Growth inhibition of human NCI-H460 cells assessed as growth inhibition at 10 uM by sulforhodamine B assay; details: read-out: GI
[2] = Growth inhibition of human NCI-ADR-RES cells assessed as growth inhibition at 10 uM by sulforhodamine B assay; details: read-out: GI
MDA-MB-435 [3] = test: Growth inhibition of human MDA-MB-435 cells assessed as growth inhibition at 10 uM by sulforhodamine B assay; details: read-out: GI
NCI-H23 [4] = test: Growth inhibition of human NCI-H23 cells assessed as cell growth at 10 uM by sulforhodamine B assay; details: read-out: Activity
NCI-H522 = test: Growth inhibition of human NCI-H522 cells assessed as cell growth at 10 uM by sulforhodamine B assay; details: read-out: Activity
DU-145 = test: Growth inhibition of human DU145 cells assessed as growth inhibition at 10 uM by sulforhodamine B assay; details: read-out: GI
SK-MEL-28 [5] = test: Growth inhibition of human SK-MEL-28 cells assessed as cell growth at 10 uM by sulforhodamine B assay; details: read-out: Activity
HCT-15 [6] = test: Growth inhibition of human HCT15 cells assessed as growth inhibition at 10 uM by sulforhodamine B assay; details: read-out: GI
A498 = test: Growth inhibition of human A498 cells assessed as growth inhibition at 10 uM by sulforhodamine B assay; details: read-out: GI
HL-60(TB) [7] = test: Growth inhibition of human HL-60(TB) cells assessed as growth inhibition at 10 uM by sulforhodamine B assay; details: read-out: GI
MOLT-4 [8] = test: Growth inhibition of human MOLT4 cells assessed as growth inhibition at 10 uM by sulforhodamine B assay; details: read-out: GI
MDA-MB-468 [9] = test: Growth inhibition of human MDA-MB-468 cells assessed as growth inhibition at 10 uM by sulforhodamine B assay; details: read-out: GI
HCT-15 [10] = test: Growth inhibition of human HCT15 cells assessed as cell growth at 10 uM by sulforhodamine B assay; details: read-out: Activity
OVCAR-3 [11] = test: Growth inhibition of human OVCAR3 cells assessed as cell growth at 10 uM by sulforhodamine B assay; details: read-out: Activity
M14 = test: Growth inhibition of human M14 cells assessed as cell growth at 10 uM by sulforhodamine B assay; details: read-out: Activity
MOLT-4 [12] = test: Growth inhibition of human MOLT4 cells assessed as cell growth at 10 uM by sulforhodamine B assay; details: read-out: Activity
OVCAR-3 [13] = test: Growth inhibition of human OVCAR3 cells assessed as growth inhibition at 10 uM by sulforhodamine B assay; details: read-out: GI
HCT-116 = test: Growth inhibition of human HCT116 cells assessed as growth inhibition at 10 uM by sulforhodamine B assay; details: read-out: GI
786-0 [14] = test: Growth inhibition of human 786-0 cells assessed as cell growth at 10 uM by sulforhodamine B assay; details: read-out: Activity
SF-295 [15] = test: Growth inhibition of human SF295 cells assessed as cell growth at 10 uM by sulforhodamine B assay; details: read-out: Activity
U-251 = test: Growth inhibition of human U251 cells assessed as cell growth at 10 uM by sulforhodamine B assay; details: read-out: Activity
SK-OV-3 = test: Growth inhibition of human SKOV3 cells assessed as growth inhibition at 10 uM by sulforhodamine B assay; details: read-out: GI
SK-MEL-28 [16] = test: Growth inhibition of human SK-MEL-28 cells assessed as growth inhibition at 10 uM by sulforhodamine B assay; details: read-out: GI
MDA-MB-468 [17] = test: Growth inhibition of human MDA-MB-468 cells assessed as cell growth at 10 uM by sulforhodamine B assay; details: read-out: Activity
ACHN = test: Growth inhibition of human ACHN cells assessed as cell growth at 10 uM by sulforhodamine B assay; details: read-out: Activity
HT-29 = test: Growth inhibition of human HT-29 cells assessed as cell growth at 10 uM by sulforhodamine B assay; details: read-out: Activity
OVCAR-5 [18] = test: Growth inhibition of human OVCAR5 cells assessed as cell growth at 10 uM by sulforhodamine B assay; details: read-out: Activity
IGROV-1 = test: Growth inhibition of human IGROV1 cells assessed as growth inhibition at 10 uM by sulforhodamine B assay; details: read-out: GI
HOP-62 = test: Growth inhibition of human HOP62 cells assessed as cell growth at 10 uM by sulforhodamine B assay; details: read-out: Activity
HL-60(TB) [19] = test: Growth inhibition of human HL-60(TB) cells assessed as cell growth at 10 uM by sulforhodamine B assay; details: read-out: Activity
[20] = Growth inhibition of human HCC2998 cells assessed as cell growth at 10 uM by sulforhodamine B assay; details: HCC 2998, read-out: Activity
OVCAR-5 [21] = test: Growth inhibition of human OVCAR5 cells assessed as growth inhibition at 10 uM by sulforhodamine B assay; details: read-out: GI
NCI-H226 = test: Growth inhibition of human NCI-H226 cells assessed as growth inhibition at 10 uM by sulforhodamine B assay; details: read-out: GI
NCI-H322M [22] = test: Growth inhibition of human NCI-H322M cells assessed as cell growth at 10 uM by sulforhodamine B assay; details: read-out: Activity
SK-MEL-2 = test: Growth inhibition of human SK-MEL-2 cells assessed as cell growth at 10 uM by sulforhodamine B assay; details: read-out: Activity
TK-10 = test: Growth inhibition of human TK10 cells assessed as growth inhibition at 10 uM by sulforhodamine B assay; details: read-out: GI
SF-295 [23] = test: Growth inhibition of human SF295 cells assessed as growth inhibition at 10 uM by sulforhodamine B assay; details: read-out: GI
NCI-H322M [24] = test: Growth inhibition of human NCI-H322M cells assessed as growth inhibition at 10 uM by sulforhodamine B assay; details: read-out: GI
MDA-MB-435 [25] = test: Growth inhibition of human MDA-MB-435 cells assessed as cell growth at 10 uM by sulforhodamine B assay; details: read-out: Activity
RPMI-8226 = test: Growth inhibition of human RPMI8226 cells assessed as growth inhibition at 10 uM by sulforhodamine B assay; details: read-out: GI
UACC-257 = test: Growth inhibition of human UACC257 cells assessed as cell growth at 10 uM by sulforhodamine B assay; details: read-out: Activity
UACC-62 [26] = test: Growth inhibition of human UACC62 cells assessed as cell growth at 10 uM by sulforhodamine B assay; details: read-out: Activity
UACC-62 [27] = test: Growth inhibition of human UACC62 cells assessed as growth inhibition at 10 uM by sulforhodamine B assay; details: read-out: GI
SNB-19 = test: Growth inhibition of human SNB19 cells assessed as cell growth at 10 uM by sulforhodamine B assay; details: read-out: Activity
[28] = Growth inhibition of human EKVX cells assessed as growth inhibition at 10 uM by sulforhodamine B assay; details: read-out: GI
NCI-H23 [29] = test: Growth inhibition of human NCI-H23 cells assessed as growth inhibition at 10 uM by sulforhodamine B assay; details: read-out: GI

Structure (SMILES): CC1(C)C[C@@H](O)[C@]2(C(=O)O)CC[C@]3(C)C(=CC[C@@H]4[C@@]5(C)C/C(=C\C=C\c6ccccc6)C(=O)C(C)(C)[C@@H]5CC[C@]43C)[C@@H]2C1
- inhibition of growth at 10 µM (COLO 205): < 10%
- inhibition of growth at 10 µM (786-0 [1]): 21.9%
- growth at 10 µM (SNB-75): 72.1%
- inhibition of growth at 10 µM (NCI-H460): 54.2%
- inhibition of growth at 10 µM [2]: 23.8%
- inhibition of growth at 10 µM (MDA-MB-435 [3]): 27.7%
- growth at 10 µM (NCI-H23 [4]): 59.7%
- growth at 10 µM (NCI-H522): 47.7%
- inhibition of growth at 10 µM (DU-145): 28.8%
- growth at 10 µM (SK-MEL-28 [5]): 74.2%
- inhibition of growth at 10 µM (HCT-15 [6]): 64.8%
- inhibition of growth at 10 µM (A498): < 10%
- inhibition of growth at 10 µM (HL-60(TB) [7]): 61.2%
- inhibition of growth at 10 µM (MOLT-4 [8]): 55.6%
- inhibition of growth at 10 µM (MDA-MB-468 [9]): 27.4%
- growth at 10 µM (HCT-15 [10]): 35.2%
- growth at 10 µM (OVCAR-3 [11]): 57.3%
- growth at 10 µM (M14): 72.9%
- growth at 10 µM (MOLT-4 [12]): 44.4%
- inhibition of growth at 10 µM (OVCAR-3 [13]): 42.7%
- inhibition of growth at 10 µM (HCT-116): 82.5%
- growth at 10 µM (786-0 [14]): 78.1%
- growth at 10 µM (SF-295 [15]): 23.5%
- growth at 10 µM (U-251): 33.6%
- inhibition of growth at 10 µM (SK-OV-3): 14.3%
- inhibition of growth at 10 µM (SK-MEL-28 [16]): 25.8%
- growth at 10 µM (MDA-MB-468 [17]): 72.6%
- growth at 10 µM (ACHN): 41.9%
- growth at 10 µM (HT-29): 51.7%
- growth at 10 µM (OVCAR-5 [18]): 104%
- inhibition of growth at 10 µM (IGROV-1): 39.2%
- growth at 10 µM (HOP-62): 62.8%
- growth at 10 µM (HL-60(TB) [19]): 38.8%
- growth at 10 µM [20]: 82.8%
- inhibition of growth at 10 µM (OVCAR-5 [21]): < 10%
- inhibition of growth at 10 µM (NCI-H226): 27.7%
- growth at 10 µM (NCI-H322M [22]): 71.9%
- growth at 10 µM (SK-MEL-2): 64.6%
- inhibition of growth at 10 µM (TK-10): 11.7%
- inhibition of growth at 10 µM (SF-295 [23]): 76.5%
- inhibition of growth at 10 µM (NCI-H322M [24]): 28.1%
- growth at 10 µM (MDA-MB-435 [25]): 72.3%
- inhibition of growth at 10 µM (RPMI-8226): 84.4%
- growth at 10 µM (UACC-257): 62%
- growth at 10 µM (UACC-62 [26]): 50.4%
- inhibition of growth at 10 µM (UACC-62 [27]): 49.6%
- growth at 10 µM (SNB-19): 73.4%
- inhibition of growth at 10 µM [28]: 60.6%
- inhibition of growth at 10 µM (NCI-H23 [29]): 40.3%
